In experiment [1] the test system is female Sprague Dawley rats. The experiment can be described thus: Estrogen deprivation model in ovariectomized rats: wet uterine weight. The class given is in vivo. Particulars: daily for 4 days, OVX rats, % increase versus the ovariectomized controls. The procedure:
(§1) In the examples illustrating the methods, an estrogen deprivation model was used in which effects of different treatments upon circulating lipids were determined.
(§2) Seventy-five day old female Sprague Dawley rats (weight range of 200 to 225g) are obtained from Charles River Laboratories (Portage, MI). The animals are either bilaterally ovariectomized (OVX) or exposed to a Sham surgical procedure at Charles River Laboratories, and then shipped after one week. Upon arrival, they are housed in metal hanging cages in groups of 3 or 4 per cage and have ad libitum access to food (calcium content approximately 0.5%) and water for one week. Room temperature is maintained at 22.2° ± 1.7° C with a minimum relative humidity of 40%. The photoperiod in the room is 12 hours light and 12 hours dark. Dosing Regimen Tissue Collection. After a one week acclimation period (therefore, two weeks post-OVX) daily dosing with test compound is initiated. 17a-ethynyl estradiol or the test compound are given orally, unless otherwise stated, as a suspension in 1% carboxymethylcellulose or dissolved in 20% cyclodextrin. Animals are dosed daily for 4 days. Following the dosing regimen, animals are weighed and anesthetized with a ketamine: Xylazine (2:1, V:V) mixture and a blood sample is collected by cardiac puncture. The animals are then sacrificed by asphyxiation with CO2, the uterus is removed through a midline incision, and a wet uterine weight is determined.

Another experiment has as its system Eosinophil peroxidase. Description: Uterine Eosinophil Peroxidase (EPO) Assay on uteri of dosed ovariectomized rats. The class given is in vivo, Sprague Dawley rats. Particulars: daily for 4 days, OVX rats.
Excerpt: as §2
(§3) Cholesterol Analysis. Blood samples are allowed to clot at ambient temperature for 2 hours, and serum is obtained following centrifugation for 10 minutes at 3000 rpm. Serum cholesterol is determined using a Boehringer Mannheim Diagnostics high performance cholesterol assay. Briefly, the cholesterol is oxidized to cholest-4-en-3-one […]. The hydrogen peroxide is then reacted with phenol and 4-aminophenazone in the presence of peroxidase to produce a p-quinone imine dye, which is read spectrophotemetrically at 500 nm. Cholesterol concentration is then calculated against a standard curve. The entire assay is automated using a Biomek Automated Workstation. Uterine Eosinophil Peroxidase (EPO) Assay. Uteri are kept at 4° C until time of enzymatic analysis. The uteri are then homogenized in 50 volumes of 50 mM Tris buffer (pH - 8.0) containing 0.005% Triton X-100. Upon addition of 0.01% hydrogen peroxide and 10 mM O-phenylenediamine (final concentrations) in Tris buffer, increase in absorbance is monitored for one minute at 450 nm. The presence of eosinophils in the uterus is an indication of estrogenic activity of a compound. The maximal velocity of a 15 second interval is determined over the initial, linear portion of the reaction curve. Source of Compound: 17a-ethynyl estradiol was obtained from Sigma Chemical Co., St. Louis, MO.

Experiment [2] relates to female Sprague Dawley rats. The experiment can be described thus: Estrogen deprivation model in ovariectomized rats: serum cholesterol analysis. The class given is in vivo. The following applies: daily for 4 days, OVX rats, decrease versus ovariectomized controls. The procedure:
as §1, §2, §3

Each structure is given as a SMILES string. Counter-ions that a name gives are not always drawn. Marks after values point to notes of the source that are not given here.

For `C#C[C@]1(O)CC[C@H]2[C@@H]3CCc4cc(O)ccc4[C@H]3CC[C@@]21C` [EE2, 17-a-Ethynyl-estradiol, reference compound], the “Uterine Weight (% Inc.)” value in experiment [1] (0.1 mg/kg PO) is given as 96.0* % Inc. In addition, the “Uterine Eosinophil (Vmax)” value with Eosinophil peroxidase (0.1 mg/kg PO) was 54.6*. Besides, in experiment [2] (0.1 mg/kg PO), the “Serum Cholesterol (% Dec.)” value was 75.9* % Dec.
As for `O=C(CN1CCCCC1)Nc1ccc(Oc2c(-c3ccc(O)cc3)ccc3cc(O)ccc23)cc1` [Example 2, 1-[4-[2-(1-Piperidinyl)acetylamido]phenoxy-2-(4-hydroxyphenyl)-6-hydroxynaphthalene Hydrochloride], the “Uterine Weight (% Inc.)” value in experiment [1] (0.1 mg/kg PO) is given as 13.6 % Inc; in experiment [1] (1.0 mg/kg PO) it was 59.0* % Inc; in experiment [1] (10.0 mg/kg PO) it was 107.0* % Inc. Besides, the entries for the “Uterine Eosinophil (Vmax)” value in the experiment with Eosinophil peroxidase (0.1 mg/kg PO), with Eosinophil peroxidase (1.0 mg/kg PO) and in the experiment with Eosinophil peroxidase (10.0 mg/kg PO) were 1.8, 11.7 and 71.1*, respectively. The results for the “Serum Cholesterol (% Dec.)” value in experiment [2] (0.1 mg/kg PO), in experiment [2] (1.0 mg/kg PO) and in experiment [2] (10.0 mg/kg PO) were 27 % Dec, 66.4* % Dec and 57.6* % Dec, respectively.
Take `Oc1ccc(-c2ccc3cc(O)ccc3c2Oc2ccc(NCCN3CCCCC3)cc2)cc1` [Example 4, 1-[4-[2-(1-Piperidinyl)ethylamino]phenoxy]-2-(4-hydroxyphenyl)-6-hydroxynaphthalene]: the entries for the “Uterine Weight (% Inc.)” value in experiment [1] (0.01 mg/kg PO), in experiment [1] (0.1 mg/kg PO) and in experiment [1] (1.0 mg/kg PO) were 7.1 % Inc, 39.8* % Inc and 25.4 % Inc, respectively. Also, the “Uterine Eosinophil (Vmax)” value is recorded as 2.7 with Eosinophil peroxidase (0.01 mg/kg PO), 4.5 in the experiment on Eosinophil peroxidase (0.1 mg/kg PO) and 5.4 in the experiment with Eosinophil peroxidase (1.0 mg/kg PO). Moreover, the “Serum Cholesterol (% Dec.)” value is given as 20.8* % Dec in experiment [2] (0.01 mg/kg PO), 59.9* % Dec in experiment [2] (0.1 mg/kg PO) and 75.3* % Dec in experiment [2] (1.0 mg/kg PO).

Source of the values: patent EP0835868A1, “2-Aryl-3-aminoaryloxynaphthyl compounds, intermediates, compositions and methods” (ELI LILLY AND COMPANY, priority 1996, dated 1998).
